# Where a name gives a salt, the structure may show the parent alone. Read-outs that look alike come from different tables or passages of the source.
# Tests used:
# [1] = From the text: To this end, the phase distribution approach fully described in [17] was applied. […] It is evident that, in the presence of cyclodextrins, the distribution coefficient of the compound can be described by the following equation:(3) DappOrg/(buf+CD)=C2Org(drug)/C2buf(drug)+C2buf(drug•CD) where DappOrg/(buf+CD) is the distribution coefficient of the drug in the presence of CD, C2Org and C2buf are the drug concentrations in the organic and aqueous phases, respectively, and C2buf(drug•CD) is the concentration of the drug/cyclodextrin complex in the aqueous phase of the distribution system. As follows from Equation (3), the association constant of the complex can be derived from DappOrg/buf and DappOrg/(buf+CD) at specific CD concentrations using Equation (4). (4) DappOrg/(buf+CD)/DappOrg/buf=1+KC⋅CCD
# It can be performed by plotting the following dependence:(5) log(DappOrg/buf−DappOrg/(buf+CD)/DappOrg/buf)=log(KC)+α⋅log(CCD)
# [2] = 37 °C
# Experimental: The ∆logD parameter of Seiler was calculated for a single CD concentration in the aqueous phase, equal to 0.0115 M for both HP-β-CD and SBE-β-CD, as follows:(2) ΔlogD=logDappoct/buf−logDapphex/buf
# [3] = epidermis (ref 18) vs PermeaPad, no CD
# [4] = RC vs PP, no CD
# Experimental: The permeability coefficients of NTT•HCl were determined in the absence and in the presence of cyclodextrins (HP-β-CD and SBE-β-CD) in the donor solution. A model artificial regenerated cellulose membrane MWCO 12–14 kDa (Standard Grade RC Dialysis Membrane, Flat Width 45 mm) (RC) or a biomimetic PermeaPad barrier (PHABIOC, Germany, www.permeapad.com (accessed on 1 February 2023)) (PP) were placed between the donor and receptor compartments of a vertical type Franz diffusion cell (PermeGear, Inc., Hellertown, PA, USA) with 7 mL/1 mL volumes for the donor and acceptor solutions. The cyclodextrin concentrations were 0.0115 M, 0.025 M and 0.035 M when the RC membrane was used and only 0.035 M in case of the PP barrier. Two different pH values (pH of 4.0 and pH of 6.8) were applied in the donor solution, whereas the receptor chamber was filled with a buffer with a pH of 7.4, modeling the compound’s diffusion to the blood plasma in all the experiments. […] Samples with a volume of 0.5 mL for the receptor solution were withdrawn every 30 min for 5 h and analyzed with a spectrophotometer (Spectramax 190; Molecular Devices Corporation, San Jose, CA, USA) in 96-well UV black plates (Costar, Washington, DC, USA) at a wavelength of 239 nm.
# The permeability coefficient was calculated using the NTT•HCl concentration in the donor solution (C0), as follows:(7) Papp=J/C0
# [5] = for distribution coefficient lower than that of AMT•HCl: AMT•HCl values from ref 14; for distribution coefficient higher at buffer pH of 6.8 than at pH of 4.0: no CD; for Dapp hex/buf / Dapp oct/buf / logDapp hex/buf / logDapp oct/buf: 37 °C
# Experimental: The apparent distribution coefficients of NTT•HCl ( DappOrg/buf ) in the 1-octanol/buffer ( Dappoct/buf ) and n-hexane/buffer ( Dapphex/buf ) systems were measured at 37 °C via the standard shake-flask method using mutually saturated organic and aqueous solvents, as reported in our earlier studies. The experimental procedure was partially modified in the case of cyclodextrins (both HP-β-CD and SBE-β-CD) in the aqueous phase of the distribution system. Following the respective literature, in the present study, we prepared 1-octanol or n-hexane saturated with a buffer and a buffer saturated with 1-octanol and n-hexane. Three cyclodextrin concentrations (0.0115 M, 0.025 M and 0.035 M) in the aqueous phase were introduced. For the 1-octanol/buffer distribution, the examined solution of NTT•HCl was prepared in 1-octanol saturated with a buffer (C ~ 2 × 10^−3 M), whereas for the n-hexane/buffer system, it was prepared in a buffer saturated with n-hexane (C ~ 2 × 10^−3 M). Taking into account the obtained values of NTT•HCl solubility in the organic solvents and aqueous buffers, equal volumes of the 1-octanolic and buffer phases were prepared, whereas the n-hexane/buffer ratio was 12:2. Two pH values of the aqueous phases were examined: a pH of 4.0 and a pH of 6.8, simulating different segments of the gastro-intestinal tract. The respective volumes of the phases were placed into glass vials and equilibrated in an air thermostat for 3 days at 37 °C. Then, the phases were separated after at least 6 h of storage. The concentrations in both phases were measured using a UV–Vis spectrophotometer (Cary-50, USA Cary-50 Varian, Palo Alto, CA, USA, Software Version 3.00 (339)) with the help of the calibration curves. Each distribution test was carried out at least three times.
# The distribution coefficients ( DappOrg/buf ) were determined, taking into account the compound concentrations in the organic ( C2Org ) and buffer ( C2buf ) phases and the volumes of the buffer ( Vbuf ) and organic ( VOrg ) phases:(1) DappOrg/buf=C2Org⋅V^buf/C2buf⋅V^Org
# [6] = human epidermis, buffer pH of 7.4; cited from earlier work
# [7] = cited from earlier work
# [8] = design: method as in doi:10.1016/j.molliq.2022.120801; conditions: RC vs PP; cited from earlier work
structure (smiles),measurement,setting,value
"CNCCC=C1c2ccccc2CCc2ccccc21 [NTT•HCl, Nortriptyline hydrochloride]","KC, association constant of the NTT•HCl/cyclodextrin complex","[1]; HP-β-CD, aqueous phase pH of 4.0, 37 °C",1.13 ± 0.02 M⁻¹
same,"KC, association constant of the NTT•HCl/cyclodextrin complex","[1]; HP-β-CD, aqueous phase pH of 6.8, 37 °C",2.01 ± 0.05 M⁻¹
same,"KC, association constant of the NTT•HCl/cyclodextrin complex","[1]; SBE-β-CD, aqueous phase pH of 4.0, 37 °C",1.14 ± 0.02 M⁻¹
same,"KC, association constant of the NTT•HCl/cyclodextrin complex","[1]; SBE-β-CD, aqueous phase pH of 6.8, 37 °C",2.24 ± 0.03 M⁻¹
same,∆logD,"[2]; pH 4.0, 0.0115 M HP-β-CD",1.82
same,∆logD,"[2]; pH 4.0, 0.0115 M SBE-β-CD",1.79
same,∆logD,"[2]; pH 4.0, no CD",2.85
same,∆logD,"[2]; pH 6.8, 0.0115 M HP-β-CD",2.48
same,∆logD,"[2]; pH 6.8, 0.0115 M SBE-β-CD",2.23
same,∆logD,"[2]; pH 6.8, no CD",2.76
same,greater resistance of the epidermis than that of the PermeaPad barrier,[3],67 fold
same,difference between the coefficients of permeability through the PP and RC,[4],1.6 fold
same,distribution coefficient lower than that of AMT•HCl,[5]; 1-octanol/buffer pH of 4.0,7 fold
same,distribution coefficient lower than that of AMT•HCl,[5]; 1-octanol/buffer pH of 6.8,13 fold
same,distribution coefficient higher at buffer pH of 6.8 than at pH of 4.0,[5]; 1-octanol/buffer,1.33 fold
same,distribution coefficient higher at buffer pH of 6.8 than at pH of 4.0,[5]; n-hexane/buffer,1.61 fold
same,Dapp hex/buf,"[5]; pH 4.0, 0.0115 M HP-β-CD",(4.6 ± 0.1) × 10^−3
same,Dapp oct/buf,"[5]; pH 4.0, 0.0115 M HP-β-CD",0.299 ± 0.008
same,logDapp hex/buf,"[5]; pH 4.0, 0.0115 M HP-β-CD",−2.34
same,logDapp oct/buf,"[5]; pH 4.0, 0.0115 M HP-β-CD",−0.52
same,Dapp hex/buf,"[5]; pH 4.0, 0.0115 M SBE-β-CD",(3.3 ± 0.1) × 10^−3
same,Dapp oct/buf,"[5]; pH 4.0, 0.0115 M SBE-β-CD",0.204 ± 0.005
same,logDapp hex/buf,"[5]; pH 4.0, 0.0115 M SBE-β-CD",−2.48
same,logDapp oct/buf,"[5]; pH 4.0, 0.0115 M SBE-β-CD",−0.69
same,Dapp oct/buf,"[5]; pH 4.0, 0.025 M HP-β-CD",0.154 ± 0.003
same,logDapp oct/buf,"[5]; pH 4.0, 0.025 M HP-β-CD",−0.81
same,Dapp oct/buf,"[5]; pH 4.0, 0.025 M SBE-β-CD",0.086 ± 0.001
same,logDapp oct/buf,"[5]; pH 4.0, 0.025 M SBE-β-CD",−1.07
same,Dapp oct/buf,"[5]; pH 4.0, 0.035 M HP-β-CD",0.101 ± 0.001
same,logDapp oct/buf,"[5]; pH 4.0, 0.035 M HP-β-CD",−1.0
same,Dapp oct/buf,"[5]; pH 4.0, 0.035 M SBE-β-CD",0.013 ± 0.000
same,logDapp oct/buf,"[5]; pH 4.0, 0.035 M SBE-β-CD",−1.89
same,Dapp hex/buf,"[5]; pH 4.0, no CD",(5.6 ± 0.2) × 10^−3
same,Dapp oct/buf,"[5]; pH 4.0, no CD",4.159 ± 0.080
same,logDapp hex/buf,"[5]; pH 4.0, no CD",−2.23
same,logDapp oct/buf,"[5]; pH 4.0, no CD",0.62
same,Dapp hex/buf,"[5]; pH 6.8, 0.0115 M HP-β-CD",(8.7 ± 0.1) × 10^−3
same,Dapp oct/buf,"[5]; pH 6.8, 0.0115 M HP-β-CD",2.613 ± 0.022
same,logDapp hex/buf,"[5]; pH 6.8, 0.0115 M HP-β-CD",−2.06
same,logDapp oct/buf,"[5]; pH 6.8, 0.0115 M HP-β-CD",0.42
same,Dapp hex/buf,"[5]; pH 6.8, 0.0115 M SBE-β-CD",(8.6 ± 0.3) × 10^−3
same,Dapp oct/buf,"[5]; pH 6.8, 0.0115 M SBE-β-CD",1.443 ± 0.040
same,logDapp hex/buf,"[5]; pH 6.8, 0.0115 M SBE-β-CD",−2.07
same,logDapp oct/buf,"[5]; pH 6.8, 0.0115 M SBE-β-CD",0.16
same,Dapp oct/buf,"[5]; pH 6.8, 0.025 M HP-β-CD",1.993 ± 0.030
same,logDapp oct/buf,"[5]; pH 6.8, 0.025 M HP-β-CD",0.30
same,Dapp oct/buf,"[5]; pH 6.8, 0.025 M SBE-β-CD",0.364 ± 0.011
same,logDapp oct/buf,"[5]; pH 6.8, 0.025 M SBE-β-CD",−0.44
same,Dapp oct/buf,"[5]; pH 6.8, 0.035 M HP-β-CD",1.395 ± 0.025
same,logDapp oct/buf,"[5]; pH 6.8, 0.035 M HP-β-CD",0.15
same,Dapp oct/buf,"[5]; pH 6.8, 0.035 M SBE-β-CD",0.227 ± 0.006
same,logDapp oct/buf,"[5]; pH 6.8, 0.035 M SBE-β-CD",−0.64
same,Dapp hex/buf,"[5]; pH 6.8, no CD",(9.5 ± 0.2) × 10^−3
same,Dapp oct/buf,"[5]; pH 6.8, no CD",5.537 ± 0.111
same,logDapp hex/buf,"[5]; pH 6.8, no CD",−2.02
same,logDapp oct/buf,"[5]; pH 6.8, no CD",0.74
same,coefficient of permeability through epidermis,[6],0.36 × 10^−6
same,pKa,[7],9.23
"CN(C)CCC=C1c2ccccc2CCc2ccccc21.Cl [AMT•HCl, amitryptiline hydrochloride]",difference between the coefficients of permeability through the PP and RC,[8],4.0 fold

# Source: paper PMC10386514, “Cyclodextrin’s Effect on Permeability and Partition of Nortriptyline Hydrochloride” (Pharmaceuticals, 2023)
